# Reference: paper PMC5930436, “Overexpressed HDAC8 in cervical cancer cells shows functional redundancy of tubulin deacetylation with HDAC6” (Cell Communication and Signaling : CCS, 2018)
# “Also recorded” adds a separate entry of the source.
# What was measured:
# [1] = system: tubulin polymerization; conditions: cited from earlier work
# From the text: Tubulins are one of the major cytoskeletal proteins and consists of alpha, beta and gamma tubulin proteins in the family. Acetylated alpha tubulin is known to stabilize microtubules and effect intracellular transport, cell migration and primary determinant for cell morphology. HDAC8 inhibition impedes the migration property in HeLa in turn affecting the morphology.
# [2] = system: HeLa cells; assay: Cell morphology analysis, HeLa; format: cell-based, human; conditions: HeLa, 20 μM, 24 & 48 h, vs control
# Description: (§1) HeLa and HEK 293 T cells are cultured in 6 well plates till attaining 70% confluency. Cells are starved for 12 h without serum and treated with PCI-34051 (20 μM) and Paclitaxel (20 μM) along with untreated control for 24 & 48 h. Examined difference in the morphology was captured by Olympus CKX41, ProgRes CT3 phase contrast microscope at 10X focussed lens.
# [3] = system: HEK 293 T cells; assay: Cell morphology analysis, HEK 293 T; format: cell-based, human; conditions: 20 μM, 24 & 48 h, vs control
# Description: as §1
# [4] = system: HeLa cells; assay: Cell migration (wound) assay in HeLa cells; format: cell-based, human; conditions: PCI-34051 (10 μM) or Paclitaxel (10 μM), 24 and 48 h
# Description: HeLa cells are grown in 6 well plates in duplicates till it attains 90% confluency and starved with serum free media for overnight. Using a sterile 200 μl tip wound is created by drawing straight lines at three different points in each well. Detached cells are aspirated and washed three times with 1XPBS. Cells are treated with PCI-34051 (10 μM & 20 μM) and Paclitaxel (10 μM & 20 μM) dissolved in 2% FBS respectively along with control (untreated). Migrated cells into the wound were examined by capturing images using Olympus CKX41, ProgRes CT3 phase contrast microscope after 24 and 48 h.
# [5] = system: acetylated alpha tubulin, HeLa; assay: Immunoblot of acetylated alpha tubulin in HeLa cells; format: cell-based, human; conditions: Forskolin (10 μM), 45 min, immunoblot normalized with GAPDH
# Description: (§2) Human embryonic kidney cells, HEK293T, human cervical carcinoma cells, HeLa, human breast cancer cells, MDA-MB 231, human lung adenocarcinoma cellsA549, chronic myeloid leukemia cells, K562, and human colon cancer cells, HCT11, were obtained from National Centre for Cell Sciences (NCCS), Pune, India. Cell line authentication by STR analysis was performed for 10 genetic loci for all the cell lines by Life code, Genomic technologies Pvt. Ltd., and tested for mycoplasma negative by performing PCR (mycoplasma specific genes) using EZdetect PCR kit for mycoplasma detection (CCK009). All the cells were cultured in high glucose DMEM medium containing 10% foetal bovine serum and 1% Penicillin/streptomycin (Himedia). Cells were seeded in 60 mm dishes and upon attaining 80–90% confluency, treatment was given with PCI-34051(Cayman Chemicals) (10 μM/20 μM) and tubastatin (5 μM) for 24 h or both in combination (PCI-34051 and Tubastatin) and Forskolin (Sigma) (10 μM) for 45 min independently along with untreated control as described earlier.
# (§3) Total, cytoplasmic and nuclear fractions of HeLa or HEK 293 T cells treated with or without PCI-34051 (20 μM), [12] tubastatin (5 μM) and/or forskolin (10 μM) were prepared as described previously. Total protein samples of HEK 293 T, HeLa, MDAMB 231, K562, A549 and HCT11 cells / immunoprecipitated HDAC8 and HDAC6 samples from both HeLa and HEK 293 T lysates / HDAC8 siRNA transfected HEK 293 T and HeLa lysates were also prepared. The proteins were separated on 10 or 12% SDS-PAGE, transferred on to nitrocellulose membrane and probed with primary antibodies of HDAC8, Beta actin, Alpha tubulin, anti-acetylated alpha tubulin, HDAC6 and GAPDH. The bands were visualized using chemiluminiscence after probing with HRP-conjugated secondary antibody.
# (§4) Source for siRNA oligonucleotides were considered from with sequence, HDAC8 Sense: […] and Anti-sense: […]. The oligonucleotides were converted into siRNA by following standard protocol as described earlier. HeLa and HEK 293 T cells were transfected with HDAC8 siRNA (10–15 μg/100 mm dish) using lipofectamine 2000 (Invitrogen), and considering untransfected as control. Cells were harvested after 72 h of post-transfection and processed for total RNA and protein isolation.
# [6] = system: HDAC8; assay: Immunofluorescence / confocal localization of HDAC8 in HeLa and HEK 293 T cells; format: cell-based, human; conditions: Forskolin (10 μM), 45 min
# Description: as §2
# HeLa and HEK 293 T cells (Control, Forskolin, PCI-34051 (20 μM) treated) were fixed with 4% formaldehyde in PBS for 20 min at RT followed by permeabilization with 0.25% TritonX-100 in PBS. […]
# [7] = system: acetylated alpha tubulin, HEK 293 T; assay: Immunoblot of acetylated alpha tubulin in HEK 293 T cells; format: cell-based, human; conditions: HEK 293 T, Forskolin (10 μM), 45 min, immunoblot normalized with GAPDH
# Description: as §2, §3, §4
# [8] = system: HDAC8; assay: HDAC8 FLUOR DE LYS fluorometric enzyme activity assay on immunoprecipitated HDAC8 fractions; format: biochemical, human; conditions: Forskolin (10 μM); for HDAC8 enzyme activity, nuclear fraction: immunoprecipitated nuclear fraction (5 μg), vs untreated
# Description: HDAC8 enzyme activity assay was performed using HDAC8 FLUOR DE LYS fluorometric assay kit (Cat# BML-AK518–0001) for Control, PCI-34051(10 μM), Forskolin (10 μM), Tubastatin (5 μM) - treated and immunoprecipitated samples of either total, cytoplasmic and nuclear fractions of HeLa and HEK 293 T cells using anti-HDAC8 antibody and anti-HDAC6 (2 μg antibody for ~ 500 μg) according to the manufacturer’s protocol.
# [9] = system: HDAC8; conditions: by phosphorylation (PKA); cited from earlier work
# From the text: The cytoplasmic localization of HDAC8 was further confirmed by immunoblot analysis using total, cytoplasmic and nuclear protein fractions of HEK 293 T and HeLa (Fig. 1d). […] With forskolin treatment, there was significant inc ... || In silico and spectroscopy based results have confirmed the interaction of HDAC8 with alpha tubulin & acetylated alpha tubulin peptide. To further validate the functional interaction we carried out IP and co-IP experiments with HDAC8 and acetylated alpha tubulin (ac-tubulin) antibodies. […] Densitometry results for the fold expression ...
Structure (SMILES),consequence of inhibition of tubulin polymerization [1],cell morphology (cell size) [2],cell morphology (aggregation / clump formation) [3],migration efficiency (rank order) [4],levels of acetylated alpha tubulin [5],levels of acetylated alpha tubulin ([5]; listed as forskolin),localization of HDAC8 [6],levels of acetylated alpha tubulin [7],levels of acetylated alpha tubulin ([7]; listed as forskolin),"cytoplasmic HDAC8 activity ([8]; HeLa and HEK 293 T, cytoplasmic fraction (5 μg))","nuclear HDAC8 enzyme activity (discussion statement) ([8]; HeLa and HEK 293 T, nuclear fraction (5 μg))","HDAC8 enzyme activity, nuclear fraction ([8]; HEK 293 T)","HDAC8 enzyme activity, nuclear fraction ([8]; HeLa)",effect on HDAC8 [9]
CC(=O)O[C@H]1C(=O)[C@@]2(C)[C@H]([C@H](OC(=O)c3ccccc3)[C@]3(O)C[C@H](OC(=O)[C@H](O)[C@@H](NC(=O)c4ccccc4)c4ccccc4)C(C)=C1C3(C)C)[C@]1(OC(C)=O)CO[C@@H]1C[C@@H]2O [Paclitaxel],cell-cycle arrest and cell death,reduced (shrinking) cell size; also recorded: decreased cell size (shrinking),clump formation; also recorded: cell aggregation,Control> > Paclitaxel>PCI-34051,,,,,,,,,,
C=C[C@@]1(C)CC(=O)[C@]2(O)[C@@]3(C)[C@@H](O)CCC(C)(C)[C@@H]3[C@H](O)[C@H](OC(C)=O)[C@@]2(C)O1 [Forskolin],,,,,ac-alpha tubulin levels increase,increased significantly; also recorded: significant increase of acetylated tubulin expression,no difference in localization of HDAC8,ac-alpha tubulin levels increase,increased significantly,decreased,increased,significant increase in the nuclear fraction,significant increase in the nuclear fraction,known to inactivate HDAC8 by phosphorylation
